Measured values from patent publication US8309577B2, “Quinuclidine compounds as α-7 nicotinic acetylcholine receptor ligands” (Bristol-Myers Squibb Company, priority 2008, dated 2012).

biological target: T1, α-7 nicotinic acetylcholine receptor channel expressed in HEK 293 cells (Rattus norvegicus, UniProt Q05941); experiment: Ca2+-sensitive fluorescence-based FLIPR assay, α7 nicotinic ACh receptor channel function (agonist); assay type: cell-based; settings: not given
T1 construct: expressed in transfected cells
Method: I) α7 Nicotinic Acetycholine Receptor Binding. Membranes were prepared for binding using HEK293 cells stably expressing the rat α7 nicotinic acetycholine receptor (rat α7 nAChR). Cells were homogenized at 4° C. in hypotonic lysis buffer consisting of 10 mM Tris (pH 7.4), 5 mM EDTA and protease inhibitors and centrifuged at 32000×g for 20 minutes. The pellet was washed once in membrane wash buffer consisting of 50 mM Tris (pH 7.4), 1 mM EDTA and protease inhibitors and centrifuged at 32000×g for 20 minutes. This pellet was then resuspended in assay buffer consisting 50 mM KH2PO4 (pH 7.4 at 25° C.), 1 mM EDTA, 0.005% Triton-X 100 and 0.1% (v/v) Sigma Protease Inhibitor Cocktail. Aliquots were then frozen in dry ice/ethanol and kept at −80° C. until the day of the assay. II) A Ca^2+-Sensitive, Fluorescence-Based Assay α-7 for Nicotinic Acetylcholine Receptor Channel Function In Mammalian Cells (“FLIPR”). Summary: Lead compounds are evaluated for agonist activity at […], α3β4, […], and α1β1δ1ε sub-types of nicotinic ACh receptor ion channels expressed in mammalian HEK 293 cells. Agonist potency and efficacy values are determined from kinetic fluorescence Ca^2+ influx measurements made using a 384 well FLIPR (Fluorescence Image Plate Reader). […] In this assay, channel expressing HEK cell lines seeded in 384 well assay plates are loaded with a membrane permeant fluorescent Ca^2+ indicator dye, whose 510 nm green emission signal increases in response to elevation of intracellular Ca^2+ concentration. The basal fluorescence from the cells is monitored in real time, followed by the acute addition of test compounds.
Materials and Methods: Reagents: The acetomethoxy (AM) ester of the Ca^2+ indicator dye Fluo-4 was obtained from InVitrogen, (Carlsbad, Calif.). Acetylcholine and all buffer constituents were purchased from Sigma Chemical Company, St. Louis, Mo. G418 and Minimal Essential Medium were purchased from InVitrogen Life Technologies, Carlsbad, Calif. Fetal bovine serum was purchased from (InVitrogen, Carlsbad, Calif.).
Cell Culture: HEK-293 cells were grown in Minimal Essential Medium containing 10% (v/v) fetal bovine serum at 37° C. in a 5% CO2 incubator. HEK-293 cells stably expressing the ion channels were grown in the same medium with the addition of 500 μg/ml G418.
Ca^2+ flux assays of Ca^2+ channels expressed in HEK-293 cells: HEK-293 cells expressing the ion channels of interest were plated in 384 well, black-walled, clear-bottomed, poly-D-lysine coated plates at a density of ˜20,000 cells/well in 20 μl of Minimal Essential Medium containing 10% (v/v) fetal bovine serum and incubated for 2 days at 29° C. in a 5% CO2 incubator. Prior to assay, cells were loaded with the Fluo-4 AM ester. […] Dye loading was allowed to proceed for 90 minutes at room temperature at which time the dye loading solution was removed and replaced with 40 μl/well of Hanks buffer. Cells loaded with dye were loaded onto a FLIPR384 (Molecular Devices, Sunnyvale, Calif.). Fluo-4 dye was excited using the 488 nm line of an argon laser. Emission was filtered using a 540+/−30 nm bandpass filter. For evaluation of the effects of test compounds using the Ca^2+ flux assay, compounds to be tested were provided in assay ready plates. For nicotinic receptor ion channel expressing cells, the assay was initiated by the addition of 20 μl/well of Hanks buffer containing test compounds. For all assays, data were collected at 1 Hz for 10 seconds (baseline), at which time the compound containing stimulus buffers are added, and further measurements collected at 0.33 Hz for 3 min.
Data Analysis: The statistical robustness of the nicotinic receptor Ca^2+ flux assays is determined from blanks and totals wells. […] The raw fluorescence units data files generated on the FLIPR plate reader are automatically exported and processed by in-house data analysis tools.

T1 sequence (Q05941 23-502): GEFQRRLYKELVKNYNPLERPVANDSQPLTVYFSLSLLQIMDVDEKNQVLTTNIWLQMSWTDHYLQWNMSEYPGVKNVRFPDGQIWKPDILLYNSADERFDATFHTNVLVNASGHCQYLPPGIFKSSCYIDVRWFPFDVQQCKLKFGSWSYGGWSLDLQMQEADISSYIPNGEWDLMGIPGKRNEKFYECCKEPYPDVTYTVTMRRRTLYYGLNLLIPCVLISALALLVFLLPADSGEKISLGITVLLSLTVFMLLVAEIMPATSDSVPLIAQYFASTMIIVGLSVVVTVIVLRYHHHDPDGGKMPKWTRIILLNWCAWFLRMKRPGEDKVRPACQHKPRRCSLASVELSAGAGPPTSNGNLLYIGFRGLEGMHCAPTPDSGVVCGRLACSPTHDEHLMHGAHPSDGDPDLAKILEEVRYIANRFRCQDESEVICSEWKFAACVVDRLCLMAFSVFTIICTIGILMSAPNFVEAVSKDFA

Work on `c1cncc(/N=C2\NCC3(CN4CCC3CC4)O2)c1` (racemic) [Example 18, (E)-N-(1′-Azaspiro[oxazolidine-5,3′-bicyclo[2.2.2]octane]-2-ylidene)pyridin-3-amine] yielded an EC50 of 3930 nM.

same assay, conditions: FLIPR α7 (EC50, nM), Table 1; HEK 293 cells, agonist Ca2+ flux

Point of comparison: `COc1nccnc1NC1=NCC2(CN3CCC2CC3)O1` (racemic) [Example 120], EC50 875 nM. Against it:
- c1ccc(-c2cnc(NC3=NCC4(CN5CCC4CC5)O3)s2)cc1 (single isomer, unassigned) [Example 4b] — 3.8-fold lower, 230 nM
- Cc1cccc2sc(NC3=NCC4(CN5CCC4CC5)O3)nc12 (single isomer, unassigned) [Example 6a] — 5-fold higher, 4340 nM
- c1ccc2[nH]c(NC3=NCC4(CN5CCC4CC5)O3)nc2c1 (single isomer, unassigned) [Example 8a, N-(1H-benzo[d]imidazol-2-yl)-4H-1′-azaspiro[oxazole-5,3′-bicyclo[2.2.2]octan]-2-amine] — 7.3-fold lower, 120 nM
- Clc1ccc2nc(NC3=NCC4(CN5CCC4CC5)O3)sc2c1 (single isomer, unassigned) [Example 9a, N-(6-Chlorobenzo[d]thiazol-2-yl)-4H-1′-azaspiro[oxazole-5,3′-bicyclo[2.2.2]octan]-2-amine] — 8.4-fold higher, 7310 nM
- CCOc1ccc2nc(NC3=NCC4(CN5CCC4CC5)O3)sc2c1 (single isomer, unassigned) [Example 11b, N-(6-Ethoxybenzo[d]thiazol-2-yl)-4H-1′-azaspiro[oxazole-5,3′-bicyclo[2.2.2]octan]-2-amine] — 4.1-fold lower, 213 nM

same assay, conditions: FLIPR α7 activity rating (EC50, nM), Table 1; HEK 293 cells, agonist Ca2+ flux

`c1ccc2sc(NC3=NCC4(CN5CCC4CC5)O3)nc2c1` (racemic) [Example 1, N-(benzo[d]thiazol-2-yl)-4H-1′-azaspiro[oxazole-5,3′-bicyclo[2.2.2]octan]-2-amine] and `Oc1ccc2nc(NC3=NCC4(CN5CCC4CC5)O3)sc2c1` (racemic) [Example 13, 2-(4H-1′-Azaspiro[oxazole-5,3′-bicyclo[2.2.2]octane]-2-ylamino)benzo[d]thiazol-6-ol] cannot be ordered by EC50: less than 100 nM for the first, less than 100 nM for the second.

Compared with `COc1ccc2nc(NC3=NCC4(CN5CCC4CC5)O3)sc2n1` (racemic) [Example 2, N-(5-Methoxythiazolo[5,4-b]pyridin-2-yl)-4H-1′-azaspiro[oxazole-5,3′-bicyclo[2.2.2]octan]-2-amine], `COc1ccc2nc(NC3=NCC4(CN5CCC4CC5)O3)sc2c1` (single isomer, unassigned) [Example 5a] is higher in EC50: 100 to 1000 nM for the first, 1000 to 100000 nM for the second. The first is the more potent here.

First: Clc1cccc2sc(NC3=NCC4(CN5CCC4CC5)O3)nc12 (racemic) [Example 7, N-(4-chlorobenzo[d]thiazol-2-yl)-4H-1′-azaspiro[oxazole-5,3′-bicyclo[2.2.2]octan]-2-amine]
Second: Cc1cccc2sc(NC3=NCC4(CN5CCC4CC5)O3)nc12 (single isomer, unassigned) [Example 6a]
The EC50 of the first is lower: 100 to 1000 nM for the first, 1000 to 100000 nM for the second. The first is the more potent here.

Compared with `C1CCc2sc(NC3=NCC4(CN5CCC4CC5)O3)nc2C1` (racemic) [Example 14, N-(4,5,6,7-Tetrahydrobenzo[d]thiazol-2-yl)-4H-1′-azaspiro[oxazole-5,3′-bicyclo[2.2.2]octan]-2-amine], `c1ccc2sc(NC3=NCC4(CN5CCC4CC5)O3)nc2c1` (single isomer, unassigned) [Example 1a] is higher in EC50: 100 to 1000 nM for the first, 1000 to 100000 nM for the second.

`CC(C)c1csc(NC2=NCC3(CN4CCC3CC4)O2)n1` (racemic) [Example 15, N-(4-Isopropylthiazol-2-yl)-4H-1′-azaspiro[oxazole-5,3′-bicyclo[2.2.2]octan]-2-amine] and `c1csc(NC2=NCC3(CN4CCC3CC4)O2)n1` (racemic) [Example 16, N-(Thiazol-2-yl)-4H-1′-azaspiro[oxazole-5,3′-bicyclo[2.2.2]octan]-2-amine] fall in the same range of EC50: 100 to 1000 nM for the first, 100 to 1000 nM for the second.

`COc1ccc(-c2nc(NC3=NCC4(CN5CCC4CC5)O3)sc2C)cc1` (racemic) [Example 17, N-(4-(4-Methoxyphenyl)-5-methylthiazol-2-yl)-4H-1′-azaspiro[oxazole-5,3′-bicyclo[2.2.2]octan]-2-amine] and `COc1ccc(-c2csc(NC3=NCC4(CN5CCC4CC5)O3)n2)cc1` (racemic) [Example 20, N-(4-(4-Methoxyphenyl)thiazol-2-yl)-4H-1′-azaspiro[oxazole-5,3′-bicyclo[2.2.2]octan]-2-amine] fall in the same range of EC50: 100 to 1000 nM for the first, 100 to 1000 nM for the second.

`c1cncc(/N=C2\NCC3(CN4CCC3CC4)O2)c1` (racemic) [Example 18, (E)-N-(1′-Azaspiro[oxazolidine-5,3′-bicyclo[2.2.2]octane]-2-ylidene)pyridin-3-amine] and `c1cnnc(NC2=NCC3(CN4CCC3CC4)O2)c1` (racemic) [Example 115] fall in the same range of EC50: 1000 to 100000 nM for the first, 1000 to 100000 nM for the second.

Compared with `Cc1cc(C)c2c(NC3=NCC4(CN5CCC4CC5)O3)nsc2n1` (racemic) [Example 114], `Cc1cc(NC2=NCC3(CN4CCC3CC4)O2)nc(C)n1` (racemic) [Example 123] is higher in EC50: 100 to 1000 nM for the first, 1000 to 100000 nM for the second.

`COc1ccc(NC2=NCC3(CN4CCC3CC4)O2)nn1` (racemic) [Example 116] and `Cc1ccc(NC2=NCC3(CN4CCC3CC4)O2)nn1` (racemic) [Example 124] fall in the same range of EC50: 1000 to 100000 nM for the first, 1000 to 100000 nM for the second.

`COc1cncc(NC2=NCC3(CN4CCC3CC4)O2)n1` (racemic) [Example 118] and `COc1ccc2nc(NC3=NCC4(CN5CCC4CC5)O3)sc2n1` (single isomer, unassigned) [Example 2a] fall in the same range of EC50: 1000 to 100000 nM for the first, 1000 to 100000 nM for the second.

First: COc1nccnc1NC1=NCC2(CN3CCC2CC3)O1 (racemic) [Example 120]
Second: CC(C)(C)c1cc(NC2=NCC3(CN4CCC3CC4)O2)ncn1 (racemic) [Example 121]
The EC50 of the first is lower: 100 to 1000 nM for the first, 1000 to 100000 nM for the second.

First: c1ccc2sc(NC3=NCC4(CN5CCC4CC5)O3)nc2c1 (single isomer, unassigned) [Example 1b]
Second: Clc1ccc2nc(NC3=NCC4(CN5CCC4CC5)O3)sc2c1 (single isomer, unassigned) [Example 9a, N-(6-Chlorobenzo[d]thiazol-2-yl)-4H-1′-azaspiro[oxazole-5,3′-bicyclo[2.2.2]octan]-2-amine]
The EC50 of the first is lower: less than 100 nM for the first, 1000 to 100000 nM for the second. The first is the more potent here.

First: COc1ccc2nc(NC3=NCC4(CN5CCC4CC5)O3)sc2n1 (single isomer, unassigned) [Example 2b]
Second: COc1ccc2nc(NC3=NCC4(CN5CCC4CC5)O3)sc2c1 (single isomer, unassigned) [Example 5b]
The EC50 of the first is higher: 100 to 1000 nM for the first, less than 100 nM for the second. The second is the more potent here.

First: c1ccc(-c2cnc(NC3=NCC4(CN5CCC4CC5)O3)s2)cc1 (single isomer, unassigned) [Example 4a]
Second: Cc1cccc2sc(NC3=NCC4(CN5CCC4CC5)O3)nc12 (single isomer, unassigned) [Example 6b]
The EC50 of the first is higher: 1000 to 100000 nM for the first, less than 100 nM for the second. The second is the more potent here.

First: c1ccc(-c2cnc(NC3=NCC4(CN5CCC4CC5)O3)s2)cc1 (single isomer, unassigned) [Example 4b]
Second: Clc1cccc2sc(NC3=NCC4(CN5CCC4CC5)O3)nc12 (single isomer, unassigned) [Example 7a]
The EC50 of the first is lower: 100 to 1000 nM for the first, 1000 to 100000 nM for the second. The first is the more potent here.

`Clc1cccc2sc(NC3=NCC4(CN5CCC4CC5)O3)nc12` (single isomer, unassigned) [Example 7b] and `Clc1ccc2nc(NC3=NCC4(CN5CCC4CC5)O3)sc2c1` (single isomer, unassigned) [Example 9b, N-(6-Chlorobenzo[d]thiazol-2-yl)-4H-1′-azaspiro[oxazole-5,3′-bicyclo[2.2.2]octan]-2-amine] cannot be ordered by EC50: less than 100 nM for the first, less than 100 nM for the second.

`c1ccc2[nH]c(NC3=NCC4(CN5CCC4CC5)O3)nc2c1` (single isomer, unassigned) [Example 8a, N-(1H-benzo[d]imidazol-2-yl)-4H-1′-azaspiro[oxazole-5,3′-bicyclo[2.2.2]octan]-2-amine] and `Cn1c(NC2=NCC3(CN4CCC3CC4)O2)nc2ccccc21` (single isomer, unassigned) [Example 10a, N-(1-methyl-1H-benzo[d]imidazol-2-yl)-4H-1′-azaspiro[oxazole-5,3′-bicyclo[2.2.2]octan]-2-amine] fall in the same range of EC50: 100 to 1000 nM for the first, 100 to 1000 nM for the second.

Compared with `c1ccc2[nH]c(NC3=NCC4(CN5CCC4CC5)O3)nc2c1` (single isomer, unassigned) [Example 8b, N-(1H-benzo[d]imidazol-2-yl)-4H-1′-azaspiro[oxazole-5,3′-bicyclo[2.2.2]octan]-2-amine], `Cc1ccc2nc(NC3=NCC4(CN5CCC4CC5)O3)sc2c1` (single isomer, unassigned) [Example 12a, N-(6-Methylbenzo[d]thiazol-2-yl)-4H-1′-azaspiro[oxazole-5,3′-bicyclo[2.2.2]octan]-2-amine] is lower in EC50: 1000 to 100000 nM for the first, 100 to 1000 nM for the second. The second is the more potent here.

Compared with `CCOc1ccc2nc(NC3=NCC4(CN5CCC4CC5)O3)sc2c1` (single isomer, unassigned) [Example 11b, N-(6-Ethoxybenzo[d]thiazol-2-yl)-4H-1′-azaspiro[oxazole-5,3′-bicyclo[2.2.2]octan]-2-amine], `Cc1ccc2nc(NC3=NCC4(CN5CCC4CC5)O3)sc2c1` (single isomer, unassigned) [Example 12b, N-(6-Methylbenzo[d]thiazol-2-yl)-4H-1′-azaspiro[oxazole-5,3′-bicyclo[2.2.2]octan]-2-amine] is higher in EC50: 100 to 1000 nM for the first, 1000 to 100000 nM for the second.
